The source of these data is US20220306585A1, “PYRAZOLE DERIVATIVES FOR CONTROLLING ARTHROPODS” (Bayer Animal Health GmbH, priority 2019, published 2022).

Molecules are shown by their SMILES. Converted amounts (≈) assume the structure as drawn.

Series [1] can be described thus: Measurement of stability of prodrugs in buffer at pH 7.4. It counts as physicochemical. As to conditions: PBS buffer pH 7.4, 37° C., HPLC peak area, read-out: % Recovery after 24 h (stability at pH 7.4). As to the method: Preparation of the PBS buffer solution pH 7.4: 90 g sodium chloride, 13.61 g potassium dihydrogen phosphate, 83.35 g 1M aqueous sodium hydroxide were dissolved in water. More water was added up to a total volume of 1 L. This solution was diluted 1:10 with water. Eventually, pH was adjusted to pH 7.4 by the addition of phosphoric acid.
Measurement of Stability of Prodrugs in Buffer at pH 7.4
0.15 mg of the test compound were dissolved in 0.1 mL dimethylsulfoxide and 0.4 mL acetonitrile. For complete dissolution, the HPLC vial with the sample solution was shaken and treated with ultrasound. Then, 1.0 mL of PBS buffer solution pH 7.4 was added and the sample was vortexed. The sample solution was analysed by HPLC (method 8) to determine the amount of the test compound at a particular time over a period of 24 h at 37° C. The peak areas, given as percentage of total area, are used for quantification. In addition, the reaction mixture was analysed by method 9 (HPLC-MS) at the final timepoint.

Series [2] can be described thus: Degradation of prodrugs and release of parent drug in rat plasma. It counts as in vitro ADME. As to conditions: male, Hannover-Janvier RjHan, rat plasma (Li-heparin), 37° C., percent area of prodrug at t0. As to the method: Measurement of Release of Parent Drug in Rat Plasma 1 mg of the test compound was dissolved in 0.5 mL acetonitrile/dimethylsulfoxide 9:1. For complete dissolution the HPLC vial was shaken and treated with ultrasound. 20 μL of this solution were added to 1 mL of rat plasma (Li-heparin plasma, Hannover-Janvier rat, RjHan male) with vortexing at a temperature of 37° C. Aliquots (100 μL each) were taken at 0.17, 0.5, 1, 1.5, 2 and 4 hours. Each aliquot was transferred to a vial containing 300 μL of acetonitrile/citric acid buffer pH 3 8:2. These solutions were centrifuged at 5000 rpm for 10 minutes. The supernatant was analysed by HPLC (Method 8) to determine the amount of the test compound. In addition, the reaction mixture was analysed by method 9 (HPLC-MS) at the final timepoint. Both decrease of the prodrug concentration and increase of parent drug concentration were monitored. All data is given as percent area of the prodrug at to.

A short description of series [3]: Measurement of solubility in buffer at pH 6.5. Particulars: aqueous buffer, kinetic from dmso stock; PBS buffer pH 6.5, shaken 24 h at rt, LC-MSMS; read-out: Solubility of example compounds at pH 6.5. It counts as physicochemical. On the procedure:
Measurement of Solubility in Buffer at pH 6.5 2-4 mg of the test compound are dissolved in DMSO to reach a concentration of 50 g/L (solution A). To 10 μL of this solution 960 μL PBS buffer pH 6.5 are added (final concentration: […]); the mixture is shaken for 24 h at rt in a 96 well plate. An aliquot is centrifuged at 42000 rpm für 30 min. The supernatant is diluted with acetonitrile/water (8:2) 1:10 and 1:1000 resp. This diluted samples are analyzed by LC-MSMS. Calibration: 10 μL of solution A are diluted with 823 μL DMSO (final concentration: 600 μg/mL), which is further diluted with acetonitrile/water 8:2 by a factor of 100 (provides solution B). The calibration curve is obtained from solution B by further diluting with acetonitrile/water 8:2 with target concentrations of 1.2-12-60-600 ng/mL and injecting these four solutions for MS measurement. PBS-Puffer: 6.18 g sodium chloride and 3.96 g sodium dihydrogen phosphate are dissolved in 1 L aqua dist., the pH is adjusted to 6.5 with IN sodium hydroxide.

The subject of series [4] is Dermacentor variabilis nymph. As to the kind of experiment: Antiparasitic activity after administration to rats: ticks. Type of series: in vivo. As to conditions: sc, versus parent drug also injected subcutaneously. As to the method: (§1) Measurement of the Antiparasitic Activity after Administration of a Prodrug to Rats Compounds were dissolved in the appropriate volume of glycerol formal (p.a.) just before application to the animals (dose volume was adjusted to 0.03 mL/kg bodyweight). 5 rats per group were either injected intraperitoneally or subcutaneously. Rats were infested with 30 Dermacentor variabilis nymphs on study days −2, 7, 14, 21, 28, 35 and 30 adult Ctenocephalides fleas on study days −1, 8, 15, 22, 29, 36. Parasite counts were performed on study days 2, 9, 16, 23, 30, 37. Percent efficacy was calculated as arithmetic mean parasite numbers as life attached tick numbers and live flea numbers of the respective study group in comparison to parasite counts on a placebo-treated control group. Infestation of groups with less than 75% efficacy on two consecutive counting occasions will terminated for the respective parasite.

Series [5] has as its system Ctenocephalides felis adult. As to the kind of experiment: Antiparasitic activity after administration to rats: fleas. It counts as in vivo. Particulars: sc, versus parent drug also injected subcutaneously. On the procedure:
as §1

Consider `Cn1nc(C(F)(F)C(F)(F)F)c(C(F)(F)F)c1-n1cc(-c2ccc(Cl)c(C(=O)N(COC(=O)C3CC3C(=O)O)C3(C#N)CC3)c2)cn1` (centres unmarked) [Example 1, 2-({[{2-Chloro-5-[2′-methyl-5′-(pentafluoroethyl)-4′-(trifluoromethyl)-2′H-[1,3′-bipyrazol]-4-yl]benzoyl}(1-cyanocyclopropyl)amino]methoxy}carbonyl)cyclopropane-1-carboxylic acid], for which, in series [1], the recovery at 24 h, 0.1 mg/mL is 100%. In addition, in series [2], the recovery at 0.17 h, 39 µg/mL amounted to 93%; the recovery at 0.5 h, 39 µg/mL turned out to be 88%; the recovery at 1 h, 39 µg/mL was found to be 80%; the recovery at 1.5 h, 39 µg/mL turned out to be 74%. Also, in series [2], the recovery at 2 h, 39 µg/mL came to 66% and the recovery at 4 h, 39 µg/mL was 49%. For the same compound, in series [3], the solubility (as a rule, the dissolved amount per volume that the medium holds) at 24 h came to 331 µg/mL (≈ 476 µM). Further, in series [4], the “tick efficacy on rats compared with parent drug” value was “superior”. Further, the “flea efficacy on rats compared with parent drug” value in series [5] is “superior”.
Turning to `Cn1nc(C(F)(F)C(F)(F)F)c(C(F)(F)F)c1-n1cc(-c2ccc(Cl)c(C(=O)N(COC(=O)CC(C)(C)C(=O)O)C3(C#N)CC3)c2)cn1` [Example 2, 4-{[{2-Chloro-5-[2′-methyl-5′-(pentafluoroethyl)-4′-(trifluoromethyl)-2′H-[1,3′-bipyrazol]-4-yl]benzoyl}(1-cyanocyclopropyl)amino]methoxy}-2,2-dimethyl-4-oxobutanoic acid], the recovery at 24 h, 0.1 mg/mL in series [1] turned out to be 55%. Also, the solubility at 24 h in series [3] was 71 µg/mL (≈ 99.9 µM).
With `Cn1nc(C(F)(F)C(F)(F)F)c(C(F)(F)F)c1-n1cc(-c2ccc(Cl)c(C(=O)N(COC(=O)C3(C(=O)O)CC3)C3(C#N)CC3)c2)cn1` [Example 5, 1-({[{2-Chloro-5-[2′-methyl-5′-(pentafluoroethyl)-4′-(trifluoromethyl)-2′H-[1,3′-bipyrazol]-4-yl]benzoyl}(1-cyanocyclopropyl)amino]methoxy}carbonyl)cyclopropane-1-carboxylic acid], the recovery at 24 h, 0.1 mg/mL in series [1] was 71%. Moreover, the solubility at 24 h in series [3] is 171 µg/mL (≈ 246 µM).
The like results for `Cn1nc(C(F)(F)C(F)(F)F)c(C(F)(F)F)c1-n1cc(-c2ccc(Cl)c(C(=O)N(COC(=O)CCC(=O)O)C3(C#N)CC3)c2)cn1` [Example 6, 4-{[{2-Chloro-5-[2′-methyl-5′-(pentafluoroethyl)-4′-(trifluoromethyl)-2′H-[1,3′-bipyrazol]-4-yl]benzoyl}(1-cyanocyclopropyl)amino]methoxy}-4-oxobutanoic acid] were, in that order, 90% and 200 µg/mL (≈ 293 µM).
On to `Cn1nc(C(F)(F)C(F)(F)F)c(C(F)(F)F)c1-n1cc(-c2ccc(Cl)c(C(=O)N(COC(=O)/C=C/C(=O)O)C3(C#N)CC3)c2)cn1` [Example 7, (2E)-4-{[{2-Chloro-5-[2′-methyl-5′-(pentafluoroethyl)-4′-(trifluoromethyl)-2′H-[1,3′-bipyrazol]-4-yl]benzoyl}(1-cyanocyclopropyl)amino]methoxy}-4-oxobut-2-enoic acid], for which, in series [1], the recovery at 24 h, 0.1 mg/mL was determined as 96%. Besides, in series [2], the recovery at 0.17 h, 39 µg/mL amounted to 84%; the recovery at 0.5 h, 39 µg/mL turned out to be 58%; the recovery at 1 h, 39 µg/mL is 26%; the recovery at 1.5 h, 39 µg/mL turned out to be 10%. Also, in series [2], the recovery at 2 h, 39 µg/mL worked out at 4% and the recovery at 4 h, 39 µg/mL worked out at 0%.
Take `Cn1nc(C(F)(F)C(F)(F)F)c(C(F)(F)F)c1-n1cc(-c2ccc(Cl)c(C(=O)N(COC(=O)c3ccc(C(=O)O)cc3)C3(C#N)CC3)c2)cn1` [Example 10, 4-({[{2-Chloro-5-[2′-methyl-5′-(pentafluoroethyl)-4′-(trifluoromethyl)-2′H-[1,3′-bipyrazol]-4-yl]benzoyl}(1-cyanocyclopropyl)amino]methoxy}carbonyl)benzoic acid]: the recovery at 24 h, 0.1 mg/mL in series [1] was 100%. Besides, in series [2], the recovery at 0.17 h, 39 µg/mL was 99%; the recovery at 0.5 h, 39 µg/mL turned out to be 98%; the recovery at 1 h, 39 µg/mL was 96%; the recovery at 1.5 h, 39 µg/mL was 94%. Moreover, in series [2], the recovery at 2 h, 39 µg/mL is 92% and the recovery at 4 h, 39 µg/mL came to 85%. Besides, in series [3], the solubility at 24 h was 31 µg/mL (≈ 42.4 µM).
In the case of `Cn1nc(C(F)(F)C(F)(F)F)c(C(F)(F)F)c1-n1cc(-c2ccc(Cl)c(C(=O)N(COC(=O)[C@H]3CC[C@H](C(=O)O)CC3)C3(C#N)CC3)c2)cn1` [Example 12, (trans)-4-({[{2-Chloro-5-[2′-methyl-5′-(pentafluoroethyl)-4′-(trifluoromethyl)-2′H-[1,3′-bipyrazol]-4-yl]benzoyl}(1-cyanocyclopropyl)amino]methoxy}carbonyl)cyclohexane-1-carboxylic acid], the recovery at 24 h, 0.1 mg/mL in series [1] came out at 100%. Moreover, in series [2], the recovery at 0.17 h, 39 µg/mL worked out at 91%; the recovery at 0.5 h, 39 µg/mL came out at 70%; the recovery at 1 h, 39 µg/mL was found to be 49%; the recovery at 1.5 h, 39 µg/mL turned out to be 33%. In series [2], the recovery at 2 h, 39 µg/mL turned out to be 22% and the recovery at 4 h, 39 µg/mL stood at 0%. In series [3], the solubility at 24 h was 46 µg/mL (≈ 62.4 µM).
In the case of `CC(C)(CC(=O)OCN(C(=O)c1cc(-c2cnn(-c3c(Cl)cc(C(F)(C(F)(F)F)C(F)(F)F)cc3OC(F)(F)F)c2)ccc1Cl)C1(C#N)CC1)C(=O)O` [Example 14, 4-{[(2-Chloro-5-{1-[2-chloro-4-(1,1,1,2,3,3,3-heptafluoropropan-2-yl)-6-(trifluoromethoxy)phenyl]-1H-pyrazol-4-yl}benzoyl)(1-cyanocyclopropyl)amino]methoxy}-2,2-dimethyl-4-oxobutanoic acid], the recovery at 24 h, 0.1 mg/mL in series [1] is 63%. Moreover, the solubility at 24 h in series [3] amounted to 5 µg/mL (≈ 6.19 µM).
